From patent US8409836B2, “Treatment of cellulosic material and enzymes useful therein” (Roal Oy, priority 2005, dated 2013)

T1: Acremonium thermophilum ALKO4245 cellobiohydrolase At Cel7A (At CBH/Cel7A), recombinant, SEQ ID NO: 6 (Phialemonium thermophilum, UniProt A7WNT9)
T1 sequence (A7WNT9 18-523): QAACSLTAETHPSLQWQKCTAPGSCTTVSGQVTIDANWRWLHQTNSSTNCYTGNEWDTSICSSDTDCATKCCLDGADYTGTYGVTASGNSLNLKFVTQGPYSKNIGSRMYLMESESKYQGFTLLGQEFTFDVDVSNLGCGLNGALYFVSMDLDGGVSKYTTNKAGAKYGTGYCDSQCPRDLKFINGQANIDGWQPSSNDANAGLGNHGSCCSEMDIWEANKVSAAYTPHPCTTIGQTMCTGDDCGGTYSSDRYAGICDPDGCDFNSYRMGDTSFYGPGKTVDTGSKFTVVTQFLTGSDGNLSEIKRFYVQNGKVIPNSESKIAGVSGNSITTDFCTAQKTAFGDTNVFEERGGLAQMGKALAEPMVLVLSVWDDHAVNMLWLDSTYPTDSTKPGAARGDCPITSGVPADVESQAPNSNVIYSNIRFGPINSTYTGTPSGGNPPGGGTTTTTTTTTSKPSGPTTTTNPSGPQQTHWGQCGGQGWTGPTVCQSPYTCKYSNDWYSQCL

T2: Chaetomium thermophilum ALKO4265 cellobiohydrolase Ct Cel7A (Ct CBH/Cel7A), recombinant, SEQ ID NO: 8 (Thermochaetoides thermophila, UniProt A7WNU1)
T2 sequence (A7WNU1 19-532): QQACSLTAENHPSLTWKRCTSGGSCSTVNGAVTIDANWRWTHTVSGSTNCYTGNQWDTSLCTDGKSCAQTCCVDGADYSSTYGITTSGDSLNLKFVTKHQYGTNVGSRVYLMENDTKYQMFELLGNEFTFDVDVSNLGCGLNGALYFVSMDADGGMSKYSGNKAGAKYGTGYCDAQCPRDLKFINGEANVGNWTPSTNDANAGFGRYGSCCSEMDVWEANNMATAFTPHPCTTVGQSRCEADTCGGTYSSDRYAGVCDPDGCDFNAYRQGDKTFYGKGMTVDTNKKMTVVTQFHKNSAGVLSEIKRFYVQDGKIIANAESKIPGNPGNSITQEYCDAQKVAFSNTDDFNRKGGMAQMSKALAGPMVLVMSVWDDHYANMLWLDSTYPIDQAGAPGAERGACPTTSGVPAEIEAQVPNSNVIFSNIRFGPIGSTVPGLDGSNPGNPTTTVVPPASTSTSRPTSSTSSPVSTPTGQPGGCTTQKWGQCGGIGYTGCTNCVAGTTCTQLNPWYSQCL

T3: Thermoascus aurantiacus ALKO4242 cellobiohydrolase Ta Cel7A (Ta CBH/Cel7A), recombinant, SEQ ID NO: 2 (Thermoascus aurantiacus, UniProt A7WNU2)
T3 sequence (A7WNU2 18-457): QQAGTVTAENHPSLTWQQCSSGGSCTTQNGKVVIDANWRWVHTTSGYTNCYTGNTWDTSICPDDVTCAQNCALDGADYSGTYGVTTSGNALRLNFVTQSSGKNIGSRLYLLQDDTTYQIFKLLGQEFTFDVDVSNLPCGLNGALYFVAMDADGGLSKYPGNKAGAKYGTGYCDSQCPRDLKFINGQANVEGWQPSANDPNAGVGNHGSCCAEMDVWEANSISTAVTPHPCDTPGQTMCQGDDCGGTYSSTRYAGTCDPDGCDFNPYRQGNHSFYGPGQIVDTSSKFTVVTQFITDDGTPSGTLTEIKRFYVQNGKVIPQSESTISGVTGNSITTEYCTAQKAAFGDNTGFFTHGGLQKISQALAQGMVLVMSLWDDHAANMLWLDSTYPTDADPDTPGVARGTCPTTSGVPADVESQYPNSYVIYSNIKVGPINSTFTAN

B1: At βG_101: beta-glucosidase of Acremonium thermophilum ALKO4245, gene At cel3A, amino acid SEQ ID NO: 24 (protein)
chain: MRQALVSLALLASSPVSAARELATSDPFYPSPWMNPEANGWEDAYAKAKAFVSQLTLLEKVNLTTGIGWQGGQCVGNVGSVPRLGLRSLCMQDSPVGIRFGDYVSVFPSGQTTAATFDKGLMNRRGNAMGQEHKGKGVNVLLGPVAGPIGRTPEGGRNWEGFSPDPVLTGIALAETIKGIQDAGVIACAKHFIANEQEHFRQSGEAQGYGFDISESLSSNIDDKTMHELYLWPFADGVRAGVGAIMCSYNQINNSYGCQNSKTLNNLLKNELGFQGFVMSDWQAQHTGAASAVAGLDMTMPGDTSFNTGLSYWGTNLTLAVLNGTVPEYRIDDMVMRIMAAFFKTGQTLDLPPINFDSWTTDTFGPLHFAVNEDRQQINWHVNVQDNHGSLIREIAAKGTVLLKNTGSLPLNKPKFLVVVGDDAGPNPAGPNACPDRGCDVGTLGMAWGSGSANFPYLITPDAALQAQAIKDGTRYESVLSNYQLDQTKALVTQANATAIVFVNADSGEGYINVDGNEGDRKNLTLWHDGDALIKSVAGWNPNTIVVIHSTGPVLVTDWYDHPNITAILWAGVPGQESGNAITDVLYGKVNPSGRSPFTWGPTRESYGTDVLYTPNNGKGAPQQAFSEGVFIDYRHFDRTNASVIYEFGHGLSYTTFQYSNIQVVKSNAGAYKPTTGTTIPAPTFGSFSKDLKDYLFPSDQFRYITQYIYPYLNSTDPAKASLDPHYGKTAAEFLPPHALDSNPQPLLRSSGKNEPGGNRQLYDILYTVTADITNTGSIVGAEVPQLYVSLGGPDDPKVVLRGFDRIRIDPGKTAQFRVTLTRRDLSNWDPAIQDWVISKYPKKVYIGRSSRKLELSADLA

What was measured:
Format in all cases: biochemical
[1] = molecular target: T1, Acremonium thermophilum ALKO4245 cellobiohydrolase At Cel7A (At CBH/Cel7A), recombinant, SEQ ID NO: 6; assay: Cellobiose inhibition constant, CNPLac as substrate
Description: (§1) The Michaelis-Menten and cellobiose inhibition constants were determined from the cellobiohydrolases produced heterologously in T. reesei (Examples 14 and 15). The enzymes were purified as described in Example 2. Protein concentrations of purified enzymes were measured by their absorption at 280 nm using a theoretical molar extinction co-efficient, which were calculated from the amino acid sequences (Gill and von Hippel, 1989).
(§2) Kinetic constants (Km and kcat values) and cellobiose inhibition constant (Ki) for Tr CBHI/Cel7A, Ta CBH/Cel7A, At CBH/Cel7A and Ct CBH/Cel7A, were measured using CNPLac (2-Chloro-4-nitrophenyl-β-D-lactoside) as substrate at ambient temperature (22° C.) in 50 mM sodium phosphate buffer, pH 5.7. For the determination of the inhibition constant (Ki), eight different substrate concentrations (31-4000 μM) in the presence of a range of five inhibitor concentrations (0-100 μM or 0-400 μM), which bracket the Ki value, were used. All experiments were performed in microtiter plates and the total reaction volume was 200 μl. The initial rates were in each case measured by continuous monitoring the release of the chloro-nitrophenolate anion (CNP, 2-Chloro-4-nitrophenolate) through measurements at 405 nm using Varioscan (Thermolabsystems) microtiter plate reader. The results were calculated from CNP standard curve (from 0 to 100 μM). Enzyme concentrations used were: Tr CBHI/Cel7A 2.46 μM, Ta CBH/Cel7A 1.58 μM, Ct CBH/Cel7A 0.79 μM and At CBH/Cel7A 3 μM. The Km and kcat constants were calculated from the fitting of the Michaelis-Menten equation using the programme of Origin. Lineweaver-Burk plots, replots (LWB slope versus [Glc2; cellobiose]) and Hanes plots were used to distinguish between competitive and mixed type inhibition and to determine the inhibition constants (Ki).

[2] = molecular target: T2, Chaetomium thermophilum ALKO4265 cellobiohydrolase Ct Cel7A (Ct CBH/Cel7A), recombinant, SEQ ID NO: 8; assay: as above
Description: as §1, §2

[3] = molecular target: T3, Thermoascus aurantiacus ALKO4242 cellobiohydrolase Ta Cel7A (Ta CBH/Cel7A), recombinant, SEQ ID NO: 2; assay: as above
Description: as §1, §2

[4] = molecular target: Trichoderma reesei cellobiohydrolase I Tr Cel7A (Tr CBHI/Cel7A) (Trichoderma reesei, UniProt A0A024RXP8); assay: as above
Description: as §1, §2

[5] = β-glucosidase activity on 4-nitrophenyl-β-D-glucopyranoside; conditions: purified β-glucosidase, 50° C.
Description: (§3) Acremonium Thermophilum ALKO4245 was grown as described in Example 1. The pure β-glucosidase was obtained by sequential purification with hydrophobic interaction and anion exchange chromatography followed by gel filtration. The β-glucosidase activity of the fractions collected during purification was determined using 4-nitrophenyl-β-D-glucopyranoside as substrate (Bailey and Linko, 1990). Protein content was measured by BioRad Assay Kit (Bio-Rad Laboratories) using bovine serum albumine as standard.
as §3, with “Thermoascus aurantiacus ALKO4242” for “Acremonium Thermophilum ALKO4245”, “interaction, anion” for “interaction”, “cation” for “anion”

[6] = Thermal stability of purified β-glucosidase; conditions: 0.1 mg/ml BSA, pH 5.0, 60 min, 4-nitrophenyl-β-D-glucopyranoside
Description: (§4) Thermal stability of the purified β-glucosidase was determined at different temperatures. The reaction was performed in the presence of 0.1 mg/ml BSA at pH 5.0 for 60 min using 4-nitrophenyl-β-D-glucopyranoside as substrate. A. thermophilum βG—101 was stable up to 70° C. The Aspergillus reference enzyme (Novozym 188) retained 100% of activity up to 60°.
as §4, with “T. aurantiacus βG—81” for “A. thermophilum βG—101”, “75°” for “70°”, “60° C.” for “60°.”

[7] = pH optimum of heterologously produced β-glucosidases; conditions: McIlvaine's buffer, pH range 3.0-8.0, 4-nitrophenyl-β-D-glucopyranoside
Description: (§5) The pH optimum of the heterologously produced β-glucosidases was determined in the universal McIlvaine's buffer within a pH range of 3.0-8.0 using 4-nitrophenyl-β-D-glucopyranoside as substrate. The pH optima for the Acremonium βG—101, Chaetomium βG—76, and Thermoascus βG—81 are pH 4.5, 5.5, and 4.5, respectively (FIG. 7 A). The optimal temperature for enzymatic activity of these β-glucosidases was determined at the temperature range of 50-85° C. as described above. The highest activity of the enzymes was determined to be at 70° C., 65° C., and 75° C. for the Acremonium βG—101/Cel3A, Chaetomium βG—76/Cel3A, and Thermoascus βG—81/Cel3A, respectively (FIG. 7 B).

[8] = Temperature optimum of heterologously produced β-glucosidases; conditions: temperature range 50-85° C., 60 min
Description: as §5

Chain of Trichoderma reesei cellobiohydrolase I Tr Cel7A (Tr CBHI/Cel7A) (A0A024RXP8 18-514): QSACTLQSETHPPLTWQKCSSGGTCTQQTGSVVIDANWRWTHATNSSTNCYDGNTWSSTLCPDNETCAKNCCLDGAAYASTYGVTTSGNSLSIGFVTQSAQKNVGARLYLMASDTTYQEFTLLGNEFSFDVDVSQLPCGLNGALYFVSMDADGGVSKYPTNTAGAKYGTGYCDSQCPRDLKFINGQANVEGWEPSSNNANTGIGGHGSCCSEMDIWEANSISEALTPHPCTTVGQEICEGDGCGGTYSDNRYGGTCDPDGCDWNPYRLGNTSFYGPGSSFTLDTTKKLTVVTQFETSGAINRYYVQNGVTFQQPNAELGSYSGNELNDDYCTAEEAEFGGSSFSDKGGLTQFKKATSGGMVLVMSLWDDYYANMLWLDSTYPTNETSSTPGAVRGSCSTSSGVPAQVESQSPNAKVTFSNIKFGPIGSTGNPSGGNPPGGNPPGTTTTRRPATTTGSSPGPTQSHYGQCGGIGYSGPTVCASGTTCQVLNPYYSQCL

Row | Molecule | Ki [1] [µM] | higher inhibition constant as compared to that of Tr CBHI/Cel7A ([1]; At CBH/Cel7A vs Tr CBHI/Cel7A, cellobiose) | Type of inhibition ([1]; At Cel7A, CNPLac substrate, 50 mM sodium phosphate pH 5.7, 22° C.) | Ki [2] [µM] | Type of inhibition ([2]; Ct Cel7A, CNPLac substrate, 50 mM sodium phosphate pH 5.7, 22° C.) | Ki [3] [µM] | Type of inhibition ([3]; Ta Cel7A, CNPLac substrate, 50 mM sodium phosphate pH 5.7, 22° C.) | Ki [4] [µM] | Type of inhibition ([4]; Tr Cel7A (control), CNPLac substrate, 50 mM sodium phosphate pH 5.7, 22° C.) | Specific activity on 4-nitrophenyl-β-D-glucopyranoside [5] [nkat/mg] | Thermal stability: temperature up to which stable / 100% of activity retained [6] | pH optimum [7] | Temperature of highest activity [8] [°C]
1 | OC[C@H]1O[C@@H](O[C@H]2[C@H](O)[C@@H](O)C(O)O[C@@H]2CO)[C@H](O)[C@@H](O)[C@@H]1O (stereo partly shown) [cellobiose] | 141 | over 7 fold | competitive | 39 | competitive | 107 | competitive | 19 | competitive |  |  |  | 
2 | B1 |  |  |  |  |  |  |  |  |  | 1100 | up to 70 °C | 4.5 | 70
